From patent US20030187000A1, “Inhibitors for de novo-RNA polymerases and methods of identifying targets for same” (priority 2002, published 2003) come the findings set out here.

This assay concerns the target T1, NS5B (Hepatitis C virus genotype 1b, UniProt P26663).
T1 construct: the RNA dependent RNA polymerase from hepatitis C virus (NS5B)
The assay can be described thus: Binding studies of thiomethylsulfonate derivatives. Particulars: among heterocyclic/aromatic-substituted thiomethylsulfonate derivatives of FIG. 1. An excerpt: Cys366 was modified by both compounds (i.e., BMTS and MMTS) and is located in the proximity of the primer-binding site (i.e., initiation nucleotide binding site) of the enzyme. […] Based on these observations, it should especially be recognized that specific modification of Cys366 near the primer-binding site may advantageously be employed for rational inhibitor design. Furthermore, it is contemplated that second-generation compounds may even operate without involvement of the Cys366 (i.e., without formation of a covalent bond) by targeting only the small pocket of the NS5B. To explore the binding affinity and specificity to the cysteines near the active sites of NS5B, a exemplary heterocyclic/aromatic-substituted thiomethylsulfonate derivatives were designed and synthesized as depicted in FIG. 1. […] This compound was also soaked into the polymerase NS5B.

T1 sequence (P26663 2420-3010): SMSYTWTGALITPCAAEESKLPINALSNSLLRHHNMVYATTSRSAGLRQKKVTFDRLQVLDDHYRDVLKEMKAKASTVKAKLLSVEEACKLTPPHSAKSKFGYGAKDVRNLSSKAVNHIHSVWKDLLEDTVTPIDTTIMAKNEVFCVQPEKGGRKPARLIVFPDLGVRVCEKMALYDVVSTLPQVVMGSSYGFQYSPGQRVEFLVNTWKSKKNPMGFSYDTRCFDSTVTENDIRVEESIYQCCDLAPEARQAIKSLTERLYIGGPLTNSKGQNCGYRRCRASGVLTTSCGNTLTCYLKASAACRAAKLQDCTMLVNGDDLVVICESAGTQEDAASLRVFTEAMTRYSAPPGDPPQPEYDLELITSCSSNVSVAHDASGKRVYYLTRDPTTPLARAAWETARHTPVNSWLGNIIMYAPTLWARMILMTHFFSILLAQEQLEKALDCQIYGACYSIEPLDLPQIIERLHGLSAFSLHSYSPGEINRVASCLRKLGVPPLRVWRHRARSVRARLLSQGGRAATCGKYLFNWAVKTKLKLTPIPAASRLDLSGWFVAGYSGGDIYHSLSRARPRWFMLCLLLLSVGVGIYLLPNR

As for `CS(=O)(=O)SCc1ccc(Cl)s1` [(5-chlorothiophen-2-yl)methylthiomethylsulfonate], the binding affinity result is on record as “highest binding affinity”.
